Assay [1] deals with T1, P2X2/3 receptors (Rattus norvegicus, UniProt P49653+P49654).
T1 construct: In the membranes of dorsal root ganglia, along with P2X3 receptors, P2X2 and P2X2/3 receptors are also found; endogenous in cells; host or cells: acutely isolated dorsal root ganglion neurons of 9-12-day Wistar rats
T1 sequence (P49653 1-472): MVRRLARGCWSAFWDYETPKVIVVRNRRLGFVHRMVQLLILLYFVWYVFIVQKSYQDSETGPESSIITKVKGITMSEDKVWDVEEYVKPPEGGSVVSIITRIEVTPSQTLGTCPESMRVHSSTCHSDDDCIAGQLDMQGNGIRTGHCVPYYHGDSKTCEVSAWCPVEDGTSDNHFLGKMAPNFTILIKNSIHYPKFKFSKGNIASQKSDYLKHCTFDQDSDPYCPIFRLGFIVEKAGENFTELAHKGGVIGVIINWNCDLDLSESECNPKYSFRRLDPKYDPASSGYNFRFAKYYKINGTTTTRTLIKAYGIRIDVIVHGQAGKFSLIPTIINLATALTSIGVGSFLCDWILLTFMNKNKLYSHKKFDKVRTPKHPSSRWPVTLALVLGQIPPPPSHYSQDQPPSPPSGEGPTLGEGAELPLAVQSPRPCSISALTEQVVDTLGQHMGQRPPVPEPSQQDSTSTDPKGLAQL
T1 sequence (P49654 1-397): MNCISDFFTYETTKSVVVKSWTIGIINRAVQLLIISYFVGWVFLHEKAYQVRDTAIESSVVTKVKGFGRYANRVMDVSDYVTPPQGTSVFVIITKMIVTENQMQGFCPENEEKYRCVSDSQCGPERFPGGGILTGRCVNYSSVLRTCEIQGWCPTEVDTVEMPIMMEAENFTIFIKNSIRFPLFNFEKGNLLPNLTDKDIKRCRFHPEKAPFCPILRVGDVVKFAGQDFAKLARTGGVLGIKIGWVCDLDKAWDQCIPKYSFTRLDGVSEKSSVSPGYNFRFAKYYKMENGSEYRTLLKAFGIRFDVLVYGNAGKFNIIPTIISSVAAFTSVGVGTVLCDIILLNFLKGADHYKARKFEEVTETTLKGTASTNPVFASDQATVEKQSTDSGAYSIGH
The following applies: agonist sensitivity, dorsal root ganglia neurons; read-out: sensitivity of P2X2/3 receptor to agonist (Kd); cited from earlier work.

The target in assay [2] is T2, P2X2 receptors (Rattus norvegicus, UniProt P49653).
T2 construct: In the membranes of dorsal root ganglia, along with P2X3 receptors, P2X2 and P2X2/3 receptors are also found; endogenous in cells; host or cells: acutely isolated dorsal root ganglion neurons of 9-12-day Wistar rats
T2 sequence (P49653 1-472): T1 sequence (P49653 1-472)
The following applies: agonist activation; cited from earlier work.

Assay [3] deals with T2, P2X2 receptors. Kind of assay: Whole-cell patch clamp of P2X2-mediated currents in rat dorsal root ganglia neurons. Format: cell-based. Particulars: PT6 50 nM (FIG. 2). Here is the method:
(§1) In the membranes of dorsal root ganglia, along with P2X3 receptors, P2X2 and P2X2/3 receptors are also found [Burgard E. C. et al. P2X receptor-mediated ionic currents in dorsal root ganglion neurons//J. Neurophysiol., 1999, V. 82, P. 1590-1598]. The time for exit of P2X3 receptors from desensitization is very large compared to P2X2 and P2X2/3 receptors. With the agonist application for 1 min, all observed responses, except for the first, are mediated by P2X2 and P2X2/3 receptors. The sensitivity of P2X2/3 receptor to ATP and α,β-methylene-ATP is similar (Kd ˜30 μM), and the minimal concentration of α,β-methylene-ATP necessary for activation of P2X2 receptors is at least 100 μM. The equivalence of ionic currents observed in response to consecutive application of ATP and α,β-methylene-ATP indicates a significant predominance of P2X2/3 receptors on the cell membrane. In cells, which generate ionic currents of various amplitude, i.e. greater in response to ATP application, and very low in response to application of α,β-methylene-ATP, the membrane contains mainly P2X2 receptors. […] Therefore, it has been established suddenly that peptide PT6 acts selectively on the receptors of P2X3 isoform and is a selective antagonist of purinergic P2X3 receptors.
In general terms: Patch clamp records ionic current or voltage across a cell membrane.

For assay [4], the target named is T1, P2X2/3 receptors. Kind of assay: Whole-cell patch clamp of P2X2/3-mediated currents in rat dorsal root ganglia neurons. The format is cell-based. Particulars: PT6 50 nM (FIG. 2). The procedure: as §1
A further assay has as its target P2X3 receptors (Rattus norvegicus, UniProt P49654). Particulars: PT6 50 nM; rat sensory (dorsal root ganglia) neurons; agonist CTP 100 μM; holding potential −60 mV.

Here are results for 3 molecules from patent publication US10981958B2, “Peptide modulator of purinergic receptors” (priority 2016, dated 2021).

Where no end group is shown, it is not given here.

Procedure for P2X3 receptors: Neurons for the experiments are isolated from dorsal root ganglia of 9-12-day Wistar rats. The ganglia are placed to a Petri dish filled with the extracellular solution (130 mM NaCl, 5 mM KCl, 2 mM CaCl2, 2 mM MgCl2, 20 mM HEPES, pH 7.4) at room temperature, and then transferred to the enzyme solution (1 mg of trypsin and 2 mg of collagenase in 2 ml of the extracellular solution) heated up to 35° C., and incubated for 10 min. Then the ganglia are rinsed thoroughly with a pure (without enzymes) extracellular solution in another Petri dish. Single cells are isolated from the rinsed ganglia using fine needles. A dish with single cells is transferred to the electrophysiological unit. The experiments begin after all cells are settled to the dish bottom in 30 min after isolation.
Electrophysiological tests are performed using the whole-cell configuration of the classic method of patch clamp and the approach of a rapid application of a substance (agonist), which binds to P2X3 receptors and induces ion channel opening. The electrophysiological setup consists of three parts: microscope; sample application system (“jumping table”; Pharma Robot, Ukraine); and recording system of the current flowing through channels in the cell plasma membrane. […] Currents are recorded at the holding potential of −60 mV and room temperature with a Model 2400 Patch Clamp Amplifier (A-M Systems, USA). […]

As to `Nc1ncnc2c1ncn2[C@@H]1O[C@H](COP(=O)(O)OP(=O)(O)OP(=O)(O)O)[C@@H](O)[C@H]1O` [ATP, adenosine triphosphate], the Kd at P2X2/3 receptors [1] was around 30 µM.

Turning to `Nc1ncnc2c1ncn2[C@@H]1O[C@H](COP(=O)(O)CP(=O)(O)OP(=O)(O)O)[C@@H](O)[C@H]1O` [α,β-methylene-ATP], the “minimal concentration necessary for activation of P2X2 receptors” value at P2X2 receptors [2] is listed as “at least 100 μM”. For the same molecule, the Kd at P2X2/3 receptors [1] was around 30 µM.

As for “GYCATKGIKCNDIHCCSGLKCDSKRKVCVKG (cysteine pairing not given here) [PT6]”, the “effect on ionic currents mediated by P2X2 receptors” value with P2X2 receptors [3] is “does not affect”. Also, in the assay with P2X2/3 receptors [4], the “effect on ionic currents mediated by P2X2/3 receptors” value is “does not affect”. The “decrease of the current amplitude mediated by P2X3 receptors (inhibition of currents)” value with P2X3 receptors is recorded as 80%.
